What was measured:
[1] = test system: female Harlan Sprague-Dawley rats; test: Diuretic screen in rats: urinary Na^+ excretion; format: in vivo
Description: The diuretic activity was determined in female Harlan Sprague-Dawley rats weighing 200 to 230 grams that were fasted 15 hours overnight, and then were deprived of both food and water for an additional hour prior to dosing. […] It approximates the area under the dose response curve. The vehicle was 20% dimethylacetamide (DMA; v/v) in a pH 7.4 phosphate buffer (0.58% N2HPO4 and 0.13% NaH2PO4·H2O). Sufficient drug was suspended in 1 to 2 ml of this vehicle to deliver doses of 1.0 to 30 mg/kg in a volume of 0.5 ml (2-4 rats/dose). At least 2 vehicle control rats, and, for most tests, 2 standard diuretic treated rats were included in each experiment. Standards used as comparators included the K^+ retaining diuretic amiloride and tie K^+ wasting diuretics furosemide, hydrochlorothiazide and metolazone.
Following their IP doses, the rats' urinary bladders were gently compressed to eliminate all pretreatment urine, and two identically treated rats were placed in a stainless steel metabolism cage equipped with a graduated test tube to collect voided urine. At 2 and 5 hours post treatment, the rats' bladders were again compressed, the volume of urine excreted by the pair of rats was recorded, and aliquots of urine were retained for analysis of Na^+ and K^+ concentrations with a NOVA-13 selective ion analyzer. Following the 5 hour urine collection, the rats were returned to their stock cages, and at least 1 week of recovery was allowed between a maximum of 3 diuretic tests.
The electrolyte concentrations detected in these urine samples were manually mulliplied by their respective volumes to determine total milliequivalent (mEq) excretion of Na^+ and K^+ per pair of rats, and the results obtained with multiple racks per drug treatment were averaged. Increases in urinary Na^+ excretion of 50% or more above the pooled control tests were regarded as reflecting activity.

RMA K^+ Channel = RMA K^+ Channel (Oryctolagus cuniculus, UniProt P82451+Q8WMQ7); test: Inhibition of pinacidil-induced relaxation of norepinephrine-contracted isolated rabbit mesenteric artery (RMA) rings; format: cell-based; conditions: inhibitor 5 µM; pinacidil 1 µM; norepinephrine 5 µM contracted rings; mean ± sem; relaxation at 15 minutes versus control; number of rings in brackets; read-out: RMA K^+ Channel Antagonism % I at 5 µM
Description: The results for potassium channel blocking were obtained by using isolated rabbit mesenteric artery (RMA) procedures. Norepinephrine (5 µM) was used to contract the RMA rings twice, with an hour separating the two contractions. During this hour the tissues equilibrated in physiological salt solution at a resting tension of 1 gram. Upon the plateau of the second contraction 1 µM pinacidil was added to all tissues and the resulting relaxation time course was studied for thirty minutes. […] By studying the ability of the test compounds to inhibit this pinacidil-induced relaxation, the degree of potassium antagonism could be determined. The compounds were applied to the tissues for one hour between the two contractions and the pinacidil-induced relaxation was studied in the continuing presence of the compounds. Thus, the total time of pretreatment with the test compound was 75 minutes before the addition of pinacidil. […] The compounds were tested at 5 µM. The inhibitory effect of a compound was measured as percent inhibition of pinacidil relaxation at 15 minutes in comparison with the control.

[2] = net increase above control in urinary Na^+ excretion over 5 hours divided by total of the three drug doses, administered IP

Sequence of RMA K^+ Channel (P82451 whole entry): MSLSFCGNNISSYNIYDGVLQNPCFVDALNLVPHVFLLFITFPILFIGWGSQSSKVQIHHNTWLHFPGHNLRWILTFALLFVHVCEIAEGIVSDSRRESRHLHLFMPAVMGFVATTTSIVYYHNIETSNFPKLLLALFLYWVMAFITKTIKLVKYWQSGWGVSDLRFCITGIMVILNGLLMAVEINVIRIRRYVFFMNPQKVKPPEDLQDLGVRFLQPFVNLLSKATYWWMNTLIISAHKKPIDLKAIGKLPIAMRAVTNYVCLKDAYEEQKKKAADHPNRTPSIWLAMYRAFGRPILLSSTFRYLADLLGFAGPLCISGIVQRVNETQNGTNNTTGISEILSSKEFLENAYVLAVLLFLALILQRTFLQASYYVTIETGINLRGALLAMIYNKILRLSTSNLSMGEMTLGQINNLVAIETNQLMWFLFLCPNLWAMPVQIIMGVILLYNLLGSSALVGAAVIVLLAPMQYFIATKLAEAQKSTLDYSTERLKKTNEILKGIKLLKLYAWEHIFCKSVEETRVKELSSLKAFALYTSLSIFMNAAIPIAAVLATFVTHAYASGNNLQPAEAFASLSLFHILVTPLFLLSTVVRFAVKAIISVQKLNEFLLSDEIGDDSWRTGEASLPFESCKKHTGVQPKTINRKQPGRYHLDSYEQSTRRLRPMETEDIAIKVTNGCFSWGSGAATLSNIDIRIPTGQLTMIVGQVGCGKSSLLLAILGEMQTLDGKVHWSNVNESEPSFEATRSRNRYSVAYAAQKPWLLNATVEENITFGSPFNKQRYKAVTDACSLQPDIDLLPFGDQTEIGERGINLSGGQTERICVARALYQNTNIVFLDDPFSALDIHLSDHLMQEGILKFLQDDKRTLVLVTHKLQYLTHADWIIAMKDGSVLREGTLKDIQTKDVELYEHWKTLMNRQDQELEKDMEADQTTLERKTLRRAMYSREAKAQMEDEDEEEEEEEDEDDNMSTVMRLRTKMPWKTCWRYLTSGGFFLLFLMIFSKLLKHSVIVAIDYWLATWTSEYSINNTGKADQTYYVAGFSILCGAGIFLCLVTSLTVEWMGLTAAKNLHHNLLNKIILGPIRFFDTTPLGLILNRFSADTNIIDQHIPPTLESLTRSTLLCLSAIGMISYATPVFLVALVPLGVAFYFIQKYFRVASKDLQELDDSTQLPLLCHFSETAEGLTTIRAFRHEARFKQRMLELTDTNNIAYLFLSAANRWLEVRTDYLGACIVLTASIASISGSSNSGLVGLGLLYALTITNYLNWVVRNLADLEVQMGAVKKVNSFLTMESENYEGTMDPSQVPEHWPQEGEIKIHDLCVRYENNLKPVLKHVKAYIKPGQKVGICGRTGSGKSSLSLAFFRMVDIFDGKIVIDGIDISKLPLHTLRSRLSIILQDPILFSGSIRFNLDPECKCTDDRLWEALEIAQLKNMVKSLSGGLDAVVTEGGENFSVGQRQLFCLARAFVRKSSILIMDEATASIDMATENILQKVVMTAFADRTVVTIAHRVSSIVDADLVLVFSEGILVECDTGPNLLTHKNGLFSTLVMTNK
Sequence of RMA K^+ Channel (Q8WMQ7 1-424): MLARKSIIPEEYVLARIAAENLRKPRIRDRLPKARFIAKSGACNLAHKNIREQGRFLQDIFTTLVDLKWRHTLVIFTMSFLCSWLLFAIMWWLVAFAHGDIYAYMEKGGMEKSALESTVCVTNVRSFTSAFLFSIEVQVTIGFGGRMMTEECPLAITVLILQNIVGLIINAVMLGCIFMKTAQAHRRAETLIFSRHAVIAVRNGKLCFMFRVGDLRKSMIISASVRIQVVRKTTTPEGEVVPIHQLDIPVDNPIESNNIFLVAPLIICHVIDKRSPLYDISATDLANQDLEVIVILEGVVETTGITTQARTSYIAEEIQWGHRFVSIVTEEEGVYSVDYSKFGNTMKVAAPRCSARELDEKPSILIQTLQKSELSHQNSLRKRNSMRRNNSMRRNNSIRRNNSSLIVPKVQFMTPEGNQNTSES

Row | Structure (SMILES) | 5 h Net Natriuretic Efficacy (µEq Na^+/mg/kg) [1, 2] [µEq Na^+/mg/kg] | inhibition at 5 µM (RMA K^+ Channel) [%] | 5 h Net Natriuretic Efficacy (µEq Na^+/mg/kg) ([1]; antidiuresis seen with 5 mg/kg oral dosage (footnote d))
1 | N#CN=C(NCC(c1ccccc1)c1ccccc1)Nc1cccnc1 [Control] | 0.0 | 0 | 
2 | C[C@@H](NC(=NC#N)Nc1cncnc1)c1ccccc1 [Example 1, (R)-N"-Cyano-N-(5-pyrimidyl)-N'-(1-phenyl)ethylguanidine] | 13.2 | 81.7 ± 4.4 | 
3 | N#CN=C(Nc1cnc(N)nc1)NC1(c2ccccc2)CCC1 [Example 2, N-(2-Amiro-5-pyrimidyl)N"-cyano-N'-(1-phenyl)cyclobutylguanidine] | 43 | 97 | 
4 | CC(N/C(=N\C#N)Nc1ccncc1)C(C)(C)C (centres unmarked) [Pinacidil] |  | 0 | -60^d µEq Na^+/mg/kg

From patent EP0703904B1, “PYRIMIDINE CYANOGUANIDINES AS K-CHANNEL BLOCKERS” (priority 1993, dated 1994)
